Experimental data: patent publication US6841566B2, “Viral polymerase inhibitors” (Boehringer Ingelheim, Ltd., priority 2001, dated 2005)

Each molecule was assayed on Huh7 cells that stably maintain a subgenomic HCV replicon (S22.3 cell-line) (assay: Cell based HCV RNA replication assay (S22.3 replicon cells, real-time RT-PCR)). Conditions: Hepatitis C virus, Huh-7, 72 hours.
Method: Huh7 cells that stably maintain a subgenomic HCV replicon were established as previously described (Lohman et al., 1999. Science 285: 110-113) and designated as the S22.3 cell-line. S22.3 cells were maintained in Dulbecco's Modified […] Medium (DMEM) supplemented with 10% FBS and 0.5 mg/mL neomycin (Standard Medium). During the assay, DMEM medium supplemented with 10% FBS, containing 0.5% DMSO and lacking neomycin was used (Assay Medium). 16 hours prior to compound addition, S22.3 cells are trypsinized and diluted to 100 000 cells/ml in Standard Medium. 100μL (10 000 cells) are distributed into each well of a 96-well plate. The plate was then incubated at 37° C. with 5% CO2 until the next day.
10 μL of test compound (in 100% DMSO) was added to 2 ml of Assay Medium for a final DMSO concentration of 0.5% and the solution was sonicated for 15 min and filtered through a […] Millipore Filter Unit. 900 μl was transferred into row A of a Polypropylene Deep-Well Titer Plate. Rows B to H, contain 400 μL aliquots of Assay Medium (containing 0.5% DMSO), and were used to prepare serial dilutions (1/2) by transferring 400 μl from row to row (no compound was included in row H).
Cell culture medium was aspirated from the 96-well plate containing the S22.3 cells. 175 μL of assay medium with the appropriate dilution of test compound was transferred from each well of the compound plate to the corresponding well of the cell culture plate (row H was used as the “No inhibition control”). The cell culture plate was incubated at 37° C. with 5% CO2 for 72 hours.
Following the 72 hour incubation period, the total cellular RNA was extracted from the S22.3 cells of the 96-well plate using the RNeasy 96 kit (Qiagen®, RNeasy Handbook. 1999.). Briefly, assay medium was completely removed from cells and 100 μL of RLT buffer (Qiagen®) containing 143 mM β-mercaptoethanol was added to each well of the 96-well cell-culture plate. The microplate was gently shaken for 20 sec. 100 μL of 70% ethanol was then added to each microplate well, and mixed by pipetting. The lysate was removed and applied to the wells of a RNeasy 96 (Qiagen®) plate that was placed on top of a Qiagen® Square-Well Block. The RNeasy 96 plate was sealed with tape and the Square-Well Block with the RNeasy 96 plate was loaded into the holder and placed in a rotor bucket of a 4K15C centrifuge. The sample was centrifuged at 6000 rpm (˜5600×g) for 4 min at room temperature. The tape was removed from the plate and 0.8 ml of Buffer RW1 (Qiagen® RNeasy 96 kit) was added to each well of the RNeasy 96 plate. The RNeasy 96 plate was sealed with a new piece of tape and centrifuged at 6000 rpm for 4 min at room temperature. The RNeasy 96 plate was placed on top of another clean Square-Well Block, the tape removed and 0.8 ml of Buffer RPE (Qiagen® RNeasy 96 kit) was added to each well of the RNeasy 96 plate. The RNeasy 96 plate was sealed with a new piece of tape and centrifuged at 6000 rpm for 4 min at room temperature. The tape was removed and another 0.8 ml of Buffer RPE (Qiagen® RNeasy 96 kit) was added to each well of the RNeasy 96 plate. The RNeasy 96 plate was sealed with a new piece of tape and centrifuged at 6000 rpm for 10 min at room temperature. Tape was removed, the RNeasy 96 plate was placed on top of a rack containing 1.2-mL collection microtubes. The RNA was eluted by adding 50 μL of RNase-free water to each well, sealing plate with a new piece of tape and incubated for 1 min at room temperature. The plate was then centrifuged at 6000 rpm for 4 min at room temperature. The elution step was repeated with a second volume of 50 μl RNase-free water. The microtubes with total cellular RNA are stored at −70° C.
RNA was quantified on the STORM® system (Molecular Dynamics®) using the RiboGreen® RNA Quantification Kit (Molecular Probes®). Briefly, the RiboGreen reagent was diluted 200-fold in TE (10 mM Tris-HCl pH=7.5, 1 mM EDTA). Generally, 50 μL of reagent was diluted in 10 mL TE. […]
With `O=C(NC1(C(=O)Nc2ccc(-c3ccc(C(=O)O)o3)cc2)CCCC1)c1ccc2c(c1)nc(-c1ccoc1)n2C1CCCCC1` [compound 1080] the EC50 was ≤ 5 µM.
In the case of `Cn1cccc1-c1nc2cc(C(=O)NC3(C(=O)Nc4ccc(/C=C/C(=O)O)cc4)CCCC3)ccc2n1C1CCCCC1` [compound 2048], the EC50 is reported as ≤ 5 µM.
For `Cc1nc(C(=O)O)sc1-c1ccc(NC(=O)C2(NC(=O)c3ccc4c(c3)nc(-c3ccoc3)n4C3CCCCC3)CCCC2)cc1` [compound 1091], the EC50 was ≤ 5 µM.
For `CCN1CCC(NC(=O)c2ccc3c(c2)nc(-c2ccoc2)n3C2CCCCC2)(C(=O)Nc2ccc(-c3nc(C(=O)O)cs3)cc2)CC1` [compound 1108], the EC50 was ≤ 5 µM.
With `CC1CCCC(C)C1n1c(-c2ccccn2)nc2cc(C(=O)NC3(C(=O)Nc4ccc(C=CC(=O)O)cc4)CCCC3)ccc21` (mixture of isomers) [compound 2036] the EC50 was ≤ 5 µM.
With `CCC[C@@H](NC(=O)c1ccc2c(c1)nc(-c1ccoc1)n2C1CCCCC1)C(=O)Nc1ccc(/C=C/C(=O)O)cc1` [compound 1076] the EC50 was ≤ 5 µM.
In the case of `C[C@H](NC(=O)c1ccc2c(c1)nc(-c1ccoc1)n2C1CCCCC1)C(=O)Nc1ccc(/C=C/C(=O)O)cc1` [compound 1056], the EC50 is reported as 5 to 50 µM.
`CC(NC(=O)c1ccc2c(c1)nc(-c1ccoc1)n2C1CCCCC1)C(=O)Nc1ccc(C(=O)O)cc1` (stereo not drawn) [compound 1053] was tested, and the EC50 was 5 to 50 µM.
In the case of `O=C(O)C=Cc1ccc(NC(=O)C2(NC(=O)c3ccc4c(c3)nc(-c3ccco3)n4C3CC4CCC3C4)CCCC2)cc1` (mixture of isomers) [compound 2017], the EC50 is reported as ≤ 5 µM.
For `O=C(O)/C=C/c1ccc(NC(=O)C2(NC(=O)c3ccc4c(c3)nc(-c3ccoc3)n4C3CCCCC3)CCCCC2)cc1` [compound 1072], the EC50 was ≤ 5 µM.
`O=C(O)/C=C/c1ccc(NC(=O)C2(NC(=O)c3ccc4c(c3)nc(-c3cccs3)n4C3CCCCC3)CCCC2)cc1` [compound 2050] was tested, and the EC50 was ≤ 5 µM.
In the case of `Cn1c(C(=O)O)cc2cc(NC(=O)C3(NC(=O)c4ccc5c(c4)nc(-c4ccoc4)n5C4CCCCC4)CCCC3)ccc21` [compound 1077], the EC50 is reported as ≤ 5 µM.
In the case of `C[C@@H](NC(=O)c1ccc2c(c1)nc(-c1ccccc1)n2C1CCCCC1)C(=O)Nc1ccc(/C=C/C(=O)O)cc1` [compound 2003], the EC50 is reported as 5 to 50 µM.
With `O=C(O)/C=C/c1ccc(NC(=O)C2(NC(=O)c3ccc4c(c3)nc(-c3ccsc3)n4C3CCCCC3)CCCC2)cc1` [compound 2001] the EC50 was ≤ 5 µM.
For `O=C(O)C=Cc1ccc(NC(=O)C2(NC(=O)c3ccc4c(c3)nc(-c3cccs3)n4C3CC4CCC3C4)CCCC2)cc1` (mixture of isomers) [compound 2019], the EC50 was ≤ 5 µM.
For `O=C(O)/C=C/c1ccc(NC(=O)C2(NC(=O)c3ccc4c(c3)nc(-c3ccoc3)n4C3CCCCC3)CCNCC2)cc1` [compound 1100], the EC50 was ≤ 5 µM.
For `CC1CCCC(C)C1n1c(-c2ccco2)nc2cc(C(=O)NC3(C(=O)Nc4ccc(C=CC(=O)O)cc4)CCCC3)ccc21` (mixture of isomers) [compound 2033], the EC50 was ≤ 5 µM.
Work on `O=C(O)/C=C/c1ccc(NC(=O)C2(NC(=O)c3ccc4c(c3)nc(-c3ccoc3)n4C3CCCCC3)CC2)cc1` [compound 1070, (E)-3-(4-{[1-(1-{[1-(1-Cyclohexyl-2-furan-3-yl-1H-benzoimidazol-5-yl)-methanoyl]-amino}-cyclopropyl)-methanoyl]-amino}-phenyl)-acrylic acid] yielded an EC50 of 5 to 50 µM.
With `O=C(O)/C=C/c1ccc(NC(=O)C2(NC(=O)c3ccc4c(c3)nc(-c3ccccc3)n4C3CCCCC3)CCCC2)cc1` [compound 2006] the EC50 was ≤ 5 µM.
Molecule `CC(NC(=O)c1ccc2c(c1)nc(-c1ccoc1)n2C1CCCCC1)C(=O)Nc1ccc(-c2ccc(C(=O)O)o2)cc1` (stereo not drawn) [compound 1060] has an EC50 of 5 to 50 µM.
With `CC(NC(=O)c1ccc2c(c1)nc(-c1ccoc1)n2C1CCCCC1)C(=O)Nc1cccc(-c2cccc(N)c2)c1` (stereo not drawn) [compound 1022] the EC50 was 5 to 50 µM.
In the case of `Cc1oc(-c2cccc(NC(=O)[C@@H](C)NC(=O)c3ccc4c(c3)nc(-c3ccoc3)n4C3CCCCC3)c2)cc1C(=O)O` [compound 1074], the EC50 is reported as ≤ 5 µM.
`Cc1cc(=O)oc2cc(NC(=O)[C@@H](C)NC(=O)c3ccc4c(c3)nc(-c3ccoc3)n4C3CCCCC3)ccc12` [compound 1026] was tested, and the EC50 was ≤ 5 µM.
With `O=C(O)/C=C/c1ccc(NC(=O)C2(NC(=O)c3ccc4c(c3)nc(-c3ccc[nH]3)n4C3CCCCC3)CCCC2)cc1` [compound 2007] the EC50 was ≤ 5 µM.
`C[C@@H](NC(=O)c1ccc2c(c1)nc(-c1ccc[nH]1)n2C1CCCCC1)C(=O)Nc1ccc(/C=C/C(=O)O)cc1` [compound 2004] gave an EC50 of 5 to 50 µM.
`O=C(O)/C=C/c1ccc(NC(=O)CNC(=O)c2ccc3c(c2)nc(-c2ccoc2)n3C2CCCCC2)cc1` [compound 1079] showed an EC50 of 5 to 50 µM.
In the case of `CC1CCCCC1n1c(-c2ccoc2)nc2cc(C(=O)NC3(C(=O)Nc4ccc(C=CC(=O)O)cc4)CCCC3)ccc21` (stereo not drawn) [compound 2045], the EC50 is reported as ≤ 5 µM.
`CCN1CCC(NC(=O)c2ccc3c(c2)nc(-c2ccoc2)n3C2CCCCC2)(C(=O)Nc2ccc(-c3nc(C(N)=O)cs3)cc2)CC1` [compound 1109] was tested, and the EC50 was ≤ 5 µM.
For `O=C(O)/C=C/c1ccc(NC(=O)C2(NC(=O)c3ccc4c(c3)nc(-c3ccccn3)n4C3CCCCC3)CCCC2)cc1` [compound 2005], the EC50 was ≤ 5 µM.
In the case of `O=C(O)/C=C/c1ccc(NC(=O)C2(NC(=O)c3ccc4c(c3)nc(-c3ccco3)n4C3CCCCC3)CCCC2)cc1` [compound 2049], the EC50 is reported as ≤ 5 µM.
For `Cc1cc(NC(=O)C2(NC(=O)c3ccc4c(c3)nc(-c3ccoc3)n4C3CCCCC3)CCCC2)ccc1/C=C/C(=O)O` [compound 1088], the EC50 was ≤ 5 µM.
With `CCn1c(C(=O)O)cc2cc(NC(=O)C3(NC(=O)c4ccc5c(c4)nc(-c4ccoc4)n5C4CCCCC4)CCCC3)ccc21` [compound 1085] the EC50 was ≤ 5 µM.
`CC[C@@H](NC(=O)c1ccc2c(c1)nc(-c1ccoc1)n2C1CCCCC1)C(=O)Nc1ccc(/C=C/C(=O)O)cc1` [compound 1075, (E)-3-[4-((R)-2-{[1-(1-Cyclohexyl-2-furan-3-yl-1H-benzoimidazol-5-yl)-methanoyl]-amino}-butanoylamino)-phenyl]-acrylic acid] showed an EC50 of 5 to 50 µM.
`Cn1c(C(=O)O)cc2cc(NC(=O)C3(NC(=O)c4ccc5c(c4)nc(-c4ccoc4)n5C4CCCCC4)CCCNC3)ccc21` (stereo not drawn) [compound 1104] was tested, and the EC50 was ≤ 5 µM.
With `O=C(NC1(C(=O)Nc2ccc3nc(S)sc3c2)CCCC1)c1ccc2c(c1)nc(-c1ccoc1)n2C1CCCCC1` [compound 1078] the EC50 was ≤ 5 µM.
For `C[C@@H](NC(=O)c1ccc2c(c1)nc(-c1ccoc1)n2C1CCCCC1)C(=O)Nc1ccc(/C=C/C(=O)O)cc1` [compound 1057], the EC50 was 5 to 50 µM.
`CC1CCCC(C)C1n1c(-c2cccs2)nc2cc(C(=O)NC3(C(=O)Nc4ccc(C=CC(=O)O)cc4)CCCC3)ccc21` (mixture of isomers) [compound 2035] was tested, and the EC50 was ≤ 5 µM.
`CC(NC(=O)c1ccc2c(c1)nc(-c1ccoc1)n2C1CCCCC1)C(=O)Nc1ccc(/C=C/C(=O)O)cc1` (stereo not drawn) [compound 1054] was tested, and the EC50 was 5 to 50 µM.
With `CC(C)(NC(=O)c1ccc2c(c1)nc(-c1ccoc1)n2C1CCCCC1)C(=O)Nc1ccc(/C=C/C(=O)O)cc1` [compound 1093] the EC50 was ≤ 5 µM.
For `O=C(O)C=Cc1ccc(NC(=O)C2(NC(=O)c3ccc4c(c3)nc(-c3ccccn3)n4C3CC4CCC3C4)CCCC2)cc1` (mixture of isomers) [compound 2020], the EC50 was ≤ 5 µM.
For `C[C@@H]1CCCC[C@H]1n1c(-c2ccccn2)nc2cc(C(=O)NC3(C(=O)Nc4ccc(/C=C/C(=O)O)cc4)CCCC3)ccc21` (racemic) [compound 2044], the EC50 was ≤ 5 µM.
For `O=C(O)/C=C/c1ccc(NC(=O)C2(NC(=O)c3ccc4c(c3)nc(-c3ccoc3)n4C3CCCCC3)CCCC2)cc1` [compound 1071], the EC50 was ≤ 5 µM.
